The assay relates to SMN protein. Put plainly: cellular SMN ELISA (SMN protein elevation). As to conditions: myoblast cell line derived from SMNdelta7 mouse model; 24 hours compound treatment; concentration range 100 pM-10 uM. It is filed as cell-based. As to the method: A cellular SMN ELISA was used to measure the effects of low molecular weight compounds on SMN protein elevation. Cells from a myoblast cell line derived from the SMNdelta7 mouse model (kind gift from Steve Burden, NYU) were seeded into a 384-well plate at a density of 3000 cells/well and treated with compounds for 24 hours. ELISA capture plates were prepared by coating 384-well plates (Immulon 4HBX) with 0.5 ug/mL of anti-SMN mAb (BD Science, Catalog number 610647) at 4° C. overnight. The plates were washed 5 times with 110 uL of PBS-Tween (0.05% Tween-20, PBST), blocked with 100 uL of 1% BSA in PBST for 2 hours and washed (5 times) with 100 uL of PBST. After 24 hours of compound treatment cells were lysed in a modified RIPA-buffer, on ice for 1 hour. 20 uL of lysate and 20 uL of 1% BSA were then added to the ELISA capture plates and incubated at 4° C. overnight. Plates were washed (5 times) with PBST and then incubated with 1:100 dilution of primary rabbit anti-SMN polyclonal antibody (Santa cruz, Catalog number SC-15320) at room temperature for 1 hour and subsequently washed (5 times) with 110 uL of PBST. This was followed by addition of 1:100 Goat anti-Rabbit IgG-HRP linked (Cell Signaling, Catalog number 7074) secondary antibody for 1 hour. Plates were then washed with PBST and incubated with 40 uL TMB substrate (Cell Signaling, Catalog number 7004L) at room temperature for 1-10 minutes with shaking. The reaction was stopped by addition of 40 uL of stop solution (Cell signaling, Catalog number 7002L) and absorption was measured at 450 nm. Data was reported as fold activation over DMSO control and EC50. ELISA assay condition: compound concentration range 100 pM-10 uM.
(In general: An ELISA detects its analyte on a solid surface through an enzyme-linked reagent.)

What is called EC50 is the concentration needed to bring the measured effect to its halfway point. The low end stands for higher potency in that assay, the high end for lower potency in that assay. Take `CN(c1nnc(-c2cc(-n3cccn3)ccc2O)s1)C1CC(C)(C)NC(C)(C)C1` [Example 24, 2-(5-(Methyl(2,2,6,6-tetramethylpiperidin-4-yl)amino)-1,3,4-thiadiazol-2-yl)-4-(1H-pyrazol-1-yl)phenol]: the EC50 amounted to 0.987 µM and the “SMN Activity Fold (fold activation over DMSO control)” value (“SMN Activity Fold” below) was found to be 2.28 fold.

Consider `CN(c1nnc(-c2ccc(-c3cnn(C)c3)cc2Cl)s1)C1CC(C)(C)NC(C)(C)C1` [Example 25, 5-(2-Chloro-4-(1-methyl-1H-pyrazol-4-yl)phenyl)-N-methyl-N-(2,2,6,6-tetramethylpiperidin-4-yl)-1,3,4-thiadiazol-2-amine], for which the EC50 came out at 0.132 µM and the “SMN Activity Fold” value was 2.49 fold. Regarding `CN(c1nnc(-c2c(O)cc(-c3cnn(C)c3)cc2Cl)s1)C1CC(C)(C)NC(C)(C)C1` [Example 26, 3-Chloro-2-(5-(methyl(2,2,6,6-tetramethylpiperidin-4-yl)amino)-1,3,4-thiadiazol-2-yl)-5-(1-methyl-1H-pyrazol-4-yl)phenol], the “SMN Activity Fold” value was 2.26 fold. For `Cn1cc(-c2ccc(-c3nnc(NC4CC(C)(C)NC(C)(C)C4)s3)c(Cl)c2)cn1` [Example 27, 5-(2-chloro-4-(1-methyl-1H-pyrazol-4-yl)phenyl)-N-(2,2,6,6-tetramethylpiperidin-4-yl)-1,3,4-thiadiazol-2-amine], the response was half-maximal at 0.193 µM (EC50) and the “SMN Activity Fold” value turned out to be 2.48 fold. Consider `COc1cc(-c2ncc(C)o2)cc(O)c1-c1nnc(N(C)C2CC(C)(C)NC(C)(C)C2)s1` [Example 28, 3-Methoxy-2-(5-(methyl(2,2,6,6-tetramethylpiperidin-4-yl)amino)-1,3,4-thiadiazol-2-yl)-5-(5-methyloxazol-2-yl)phenol], for which it took 0.02 µM to reach a half-maximal effect (EC50) and the “SMN Activity Fold” value was 2.70 fold.

On to `COc1cc(-n2cccn2)ccc1-c1nnc(C2=CCNCC2)s1` [Example 29, 2-(2-Methoxy-4-(1H-pyrazol-1-yl)phenyl)-5-(1,2,3,6-tetrahydropyridin-4-yl)-1,3,4-thiadiazole], for which the EC50 stood at 0.879 µM and the “SMN Activity Fold” value stood at 2.46 fold. As to `Oc1cc(-n2cccn2)ccc1-c1nnc(N2CCNCC2)s1` [Example 30, 2-(5-(piperazin-1-yl)-1,3,4-thiadiazol-2-yl)-5-(1H-pyrazol-1-yl)phenol], the EC50 came to 6.56 µM and the “SMN Activity Fold” value stood at 1.98 fold. For `COc1cc2ncccc2cc1-c1nnc(N(C)C2CC(C)(C)NC(C)(C)C2)s1` [Example 31, 5-(7-Methoxyquinolin-6-yl)-N-methyl-N-(2,2,6,6-tetramethylpiperidin-4-yl)-1,3,4-thiadiazol-2-amine], it took 0.113 µM to reach a half-maximal effect (EC50) and the “SMN Activity Fold” value amounted to 2.43 fold. For the molecule `CN(c1nnc(-c2cc3cccnc3cc2O)s1)C1CC(C)(C)NC(C)(C)C1` [Example 32, 6-(5-(Methyl(2,2,6,6-tetramethylpiperidin-4-yl)amino)-1,3,4-thiadiazol-2-yl)quinolin-7-ol], the EC50 amounted to 0.256 µM and the “SMN Activity Fold” value was 2.48 fold. Turning to `COc1cc(C#N)ccc1-c1nnc(N(C)C2CC(C)(C)NC(C)(C)C2)s1` [Example 33, 3-methoxy-4-(5-(methyl(2,2,6,6-tetramethyl-piperidin-4-yl)amino)-1,3,4-thiadiazol-2-yl) benzonitrile], the EC50 is 1.04 µM and the “SMN Activity Fold” value is given as 2.16 fold. For `CN(c1nnc(-c2ccc(C#N)cc2F)s1)C1CC(C)(C)NC(C)(C)C1` [Example 34, 3-fluoro-4-(5-(methyl(2,2,6,6-tetramethylpiperidin-4-yl)amino)-1,3,4-thiadiazol-2-yl)benzonitrile], the EC50 is more than 10 µM and the “SMN Activity Fold” value is 2.32 fold.

These data come from patent US9040712B2, “Thiadiazole analogs thereof and methods for treating SMN-deficiency-related-conditions” (NOVARTIS AG, priority 2013, dated 2015).
